Test results: US6054435A, “6-O-substituted macrolides having antibacterial activity” (priority 1999, dated 2000)
≈ marks a conversion by molar mass, not a printed value.

Legend:
Assay in all cases: in vitro antibacterial activity (MIC), agar dilution
Assay type in all cases: cell-based
Candida albicans CCH 442 = settings: organism code TT; BHI agar, 35-37° C., 20 to 24 hours; unit assumed
Procedure, shortened: (§1)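 Agar dilution on BHI agar with twelve successive compound dilutions; plates inoculated by Steers replicator with 1:100 culture dilutions (1:10 for slow growers such as Streptococcus). MIC is the lowest concentration giving no growth, slight haze or sparse colonies versus a drug-free control.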

[1] = test system: Enterococcus faecium ATCC 8043; settings: organism code II; BHI agar, 35-37° C., 20 to 24 hours; unit assumed
Procedure, shortened: as §1

Escherichia coli DC-2 = settings: organism code SS; BHI agar, 35-37° C., 20 to 24 hours; unit assumed
Procedure, shortened: as §1

Escherichia coli JUHL = settings: organism code QQ; BHI agar, 35-37° C., 20 to 24 hours; unit assumed
Procedure, shortened: as §1

Escherichia coli SS = settings: organism code RR; BHI agar, 35-37° C., 20 to 24 hours; unit assumed
Procedure, shortened: as §1

[2] = test system: Haemophilis Influenzae DILL AMP R; settings: organism code WW; BHI agar, 35-37° C., 20 to 24 hours; unit assumed
Procedure, shortened: as §1

[3] = test system: Micrococcus luteus ATCC 4698; settings: organism code PP; BHI agar, 35-37° C., 20 to 24 hours; unit assumed
Procedure, shortened: (§2)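 Plates of BHI agar were prepared with twelve aqueous dilutions of compound, then inoculated at 1:100 dilution, or 1:10 for slow growers like Streptococcus. After incubation they were inspected, and the lowest concentration yielding no growth, slight haze or sparse colonies was recorded as MIC.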

[4] = test system: Micrococcus luteus ATCC 9341; settings: organism code OO; BHI agar, 35-37° C., 20 to 24 hours; unit assumed
Procedure, shortened: as §2

[5] = test system: Mycobacterium smegmatis ATCC 114; settings: organism code UU; BHI agar, 35-37° C., 20 to 24 hours; unit assumed
Procedure, shortened: as §1

[6] = test system: Nocardia Asteroides ATCC9970; settings: organism code VV; BHI agar, 35-37° C., 20 to 24 hours; unit assumed
Procedure, shortened: as §1

[7] = test system: Staphylococcus aureus 1775; settings: organism code GG; BHI agar, 35-37° C., 20 to 24 hours; unit assumed
Procedure, shortened: as §1

[8] = test system: Staphylococcus aureus A-5278; settings: organism code CC; BHI agar, 35-37° C., 20 to 24 hours; unit assumed
Procedure, shortened: as §1

[9] = test system: Staphylococcus aureus A5177; settings: organism code BB; BHI agar, 35-37° C., 20 to 24 hours; unit assumed
Procedure, shortened: as §1

[10] = test system: Staphylococcus aureus ATCC 6538P; settings: organism code AA; BHI agar, 35-37° C., 20 to 24 hours; unit assumed
Procedure, shortened: as §1

[11] = test system: Staphylococcus aureus CMX 553; settings: organism code FF; BHI agar, 35-37° C., 20 to 24 hours; unit assumed
Procedure, shortened: as §1

[12] = test system: Staphylococcus aureus CMX 642A; settings: organism code DD; BHI agar, 35-37° C., 20 to 24 hours; unit assumed
Procedure, shortened: as §1

[13] = test system: Staphylococcus aureus NCTC10649M; settings: organism code EE; BHI agar, 35-37° C., 20 to 24 hours; unit assumed
Procedure, shortened: as §1

[14] = test system: Staphylococcus epidermidis 3519; settings: organism code HH; BHI agar, 35-37° C., 20 to 24 hours; unit assumed
Procedure, shortened: as §1

[15] = test system: Streptococcus Pneumonia 5649; settings: organism code ZZA; BHI agar, 35-37° C., 20 to 24 hours; unit assumed
Procedure, shortened: as §1

[16] = test system: Streptococcus Pneumonia 5979; settings: organism code ZZ; BHI agar, 35-37° C., 20 to 24 hours; unit assumed
Procedure, shortened: as §1

[17] = test system: Streptococcus Pneumonia ATCC6303; settings: organism code XX; BHI agar, 35-37° C., 20 to 24 hours; unit assumed
Procedure, shortened: as §1

[18] = test system: Streptococcus Pneumonia GYR 1171; settings: organism code YY; BHI agar, 35-37° C., 20 to 24 hours; unit assumed
Procedure, shortened: as §1

[19] = test system: Streptococcus agalactiae CMX 508; settings: organism code KK; BHI agar, 35-37° C., 20 to 24 hours; unit assumed
Procedure, shortened: as §1

[20] = test system: Streptococcus bovis A-5169; settings: organism code JJ; BHI agar, 35-37° C., 20 to 24 hours; unit assumed
Procedure, shortened: as §1

[21] = test system: Streptococcus pyogenes 930; settings: organism code MM; BHI agar, 35-37° C., 20 to 24 hours; unit assumed
Procedure, shortened: as §1

[22] = test system: Streptococcus pyogenes EES61; settings: organism code LL; BHI agar, 35-37° C., 20 to 24 hours; unit assumed
Procedure, shortened: as §1

[23] = test system: Streptococcus pyogenes PIU 2548; settings: organism code NN; BHI agar, 35-37° C., 20 to 24 hours; unit assumed
Procedure, shortened: as §1

CC[C@H]1OC(=O)[C@H](C)C(=O)[C@H](C)[C@@H](O[C@@H]2O[C@H](C)C[C@H](N(C)C)[C@H]2O)[C@](C)(OC/C=C/c2ccc(-c3cnccn3)s2)C[C@@H](C)C(=O)[C@H](C)[C@H]2NC(=O)O[C@@]21C [Example 62]
MIC (Candida albicans CCH 442): > 100 µg/mL | MIC [1]: 0.02 µg/mL (≈ 0.025 µM) | MIC (Escherichia coli DC-2): 25 µg/mL (≈ 31.3 µM) | MIC (Escherichia coli JUHL): 50 µg/mL (≈ 62.6 µM) | MIC (Escherichia coli SS): 0.2 µg/mL (≈ 0.25 µM) | MIC [2]: 2 µg/mL (≈ 2.5 µM) | MIC [3]: 0.05 µg/mL (≈ 0.0626 µM) | MIC [4]: ≤ 0.005 µg/mL | MIC [5]: 0.78 µg/mL (≈ 0.976 µM) | MIC [6]: ≤ 0.005 µg/mL | MIC [7]: > 100 µg/mL | MIC [8]: > 100 µg/mL | MIC [9]: 0.05 µg/mL (≈ 0.0626 µM) | MIC [10]: 0.05 µg/mL (≈ 0.0626 µM) | MIC [11]: 0.02 µg/mL (≈ 0.025 µM) | MIC [12]: 0.05 µg/mL (≈ 0.0626 µM) | MIC [13]: 0.02 µg/mL (≈ 0.025 µM) | MIC [14]: 0.05 µg/mL (≈ 0.0626 µM) | MIC [15]: 0.03 µg/mL (≈ 0.0375 µM) | MIC [16]: 2 µg/mL (≈ 2.5 µM) | MIC [17]: ≤ 0.004 µg/mL | MIC [18]: ≤ 0.004 µg/mL | MIC [19]: ≤ 0.005 µg/mL | MIC [20]: ≤ 0.005 µg/mL | MIC [21]: 3.1 µg/mL (≈ 3.88 µM) | MIC [22]: ≤ 0.005 µg/mL | MIC [23]: 0.1 µg/mL (≈ 0.125 µM)

CC[C@H]1OC(=O)[C@H](C)C(=O)[C@H](C)[C@@H](O[C@@H]2O[C@H](C)C[C@H](N(C)C)[C@H]2O)[C@](C)(OC/C=C/c2ccc(-c3cccc(F)c3)s2)C[C@@H](C)C(=O)[C@H](C)[C@H]2NC(=O)O[C@@]21C [Example 72]
MIC (Candida albicans CCH 442): > 100 µg/mL | MIC [1]: 0.05 µg/mL (≈ 0.0613 µM) | MIC (Escherichia coli DC-2): > 100 µg/mL | MIC (Escherichia coli JUHL): > 100 µg/mL | MIC (Escherichia coli SS): 1.56 µg/mL (≈ 1.91 µM) | MIC [2]: 8 µg/mL (≈ 9.82 µM) | MIC [3]: 0.05 µg/mL (≈ 0.0613 µM) | MIC [4]: 0.02 µg/mL (≈ 0.0245 µM) | MIC [5]: 1.56 µg/mL (≈ 1.91 µM) | MIC [6]: 0.39 µg/mL (≈ 0.479 µM) | MIC [7]: 25 µg/mL (≈ 30.7 µM) | MIC [8]: 25 µg/mL (≈ 30.7 µM) | MIC [9]: 0.2 µg/mL (≈ 0.245 µM) | MIC [10]: 0.2 µg/mL (≈ 0.245 µM) | MIC [11]: 0.2 µg/mL (≈ 0.245 µM) | MIC [12]: 0.2 µg/mL (≈ 0.245 µM) | MIC [13]: 0.2 µg/mL (≈ 0.245 µM) | MIC [14]: 0.2 µg/mL (≈ 0.245 µM) | MIC [15]: 1 µg/mL (≈ 1.23 µM) | MIC [16]: 4 µg/mL (≈ 4.91 µM) | MIC [17]: 0.125 µg/mL (≈ 0.153 µM) | MIC [18]: 0.125 µg/mL (≈ 0.153 µM) | MIC [19]: 0.01 µg/mL (≈ 0.0123 µM) | MIC [20]: ≤ 0.005 µg/mL | MIC [21]: 12.5 µg/mL (≈ 15.3 µM) | MIC [23]: 0.39 µg/mL (≈ 0.479 µM)

CC[C@H]1OC(=O)[C@H](C)C(=O)[C@H](C)[C@@H](O[C@@H]2O[C@H](C)C[C@H](N(C)C)[C@H]2O)[C@](C)(OCC#Cc2ccc(-c3ccsc3)s2)C[C@@H](C)C(=O)[C@H](C)[C@H]2NC(=O)O[C@@]21C [Example 27]
MIC (Candida albicans CCH 442): > 100 µg/mL | MIC [1]: 0.01 µg/mL (≈ 0.0125 µM) | MIC (Escherichia coli DC-2): 100 µg/mL (≈ 125 µM) | MIC (Escherichia coli JUHL): 100 µg/mL (≈ 125 µM) | MIC (Escherichia coli SS): 0.2 µg/mL (≈ 0.25 µM) | MIC [2]: 2 µg/mL (≈ 2.5 µM) | MIC [3]: 0.05 µg/mL (≈ 0.0624 µM) | MIC [4]: ≤ 0.005 µg/mL | MIC [5]: 0.2 µg/mL (≈ 0.25 µM) | MIC [6]: 0.01 µg/mL (≈ 0.0125 µM) | MIC [8]: 100 µg/mL (≈ 125 µM) | MIC [9]: 0.05 µg/mL (≈ 0.0624 µM) | MIC [10]: 0.05 µg/mL (≈ 0.0624 µM) | MIC [11]: 0.05 µg/mL (≈ 0.0624 µM) | MIC [12]: 0.05 µg/mL (≈ 0.0624 µM) | MIC [13]: 0.05 µg/mL (≈ 0.0624 µM) | MIC [14]: 0.05 µg/mL (≈ 0.0624 µM) | MIC [15]: 0.25 µg/mL (≈ 0.312 µM) | MIC [16]: 4 µg/mL (≈ 4.99 µM) | MIC [17]: 0.015 µg/mL (≈ 0.0187 µM) | MIC [18]: 0.015 µg/mL (≈ 0.0187 µM) | MIC [19]: ≤ 0.005 µg/mL | MIC [20]: ≤ 0.005 µg/mL | MIC [21]: 6.2 µg/mL (≈ 7.74 µM) | MIC [22]: ≤ 0.005 µg/mL | MIC [23]: 0.1 µg/mL (≈ 0.125 µM)
